Test results taken from ChEMBL document CHEMBL1201862, “PubChem BioAssay data set” (2004).
The source made the active and inactive calls. Rule as the data show it: actives have a measured EC50 and inactives only a lower limit.

Legend:
[1] = target: T1, Heat shock factor protein 1 (Mus musculus, UniProt P38532); assay: inhibition of MG132-induced HSE-luciferase signal, confirmation, cell-based, NIH3T3, luminescence, dose retest (AID 2382); type: functional;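 also: NIH3T3 fibroblasts with HSF1-driven luciferase reporter stressed by proteasome inhibitor MG132; luminescence from HSF1-driven luciferase expression after 8 hours of MG132 stress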
T1 sequence (P38532 whole entry): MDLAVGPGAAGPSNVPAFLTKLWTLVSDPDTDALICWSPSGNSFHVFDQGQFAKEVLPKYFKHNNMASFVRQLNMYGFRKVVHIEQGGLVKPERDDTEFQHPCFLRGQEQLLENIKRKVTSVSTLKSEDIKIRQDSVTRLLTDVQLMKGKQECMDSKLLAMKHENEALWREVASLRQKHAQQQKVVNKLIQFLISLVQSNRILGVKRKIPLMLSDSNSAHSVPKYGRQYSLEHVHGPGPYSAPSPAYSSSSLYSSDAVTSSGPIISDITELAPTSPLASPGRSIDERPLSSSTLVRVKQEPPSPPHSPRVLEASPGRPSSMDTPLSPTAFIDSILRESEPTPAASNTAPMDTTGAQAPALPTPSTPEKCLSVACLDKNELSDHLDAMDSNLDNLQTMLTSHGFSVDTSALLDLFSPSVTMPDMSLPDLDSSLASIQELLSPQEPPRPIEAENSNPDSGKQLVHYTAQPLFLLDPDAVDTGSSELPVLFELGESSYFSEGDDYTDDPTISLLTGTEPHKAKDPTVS

[2] = inhibitors of intracellular T. cruzi replication, confirmation, NIH3T3 host cells, beta-gal luminescence (AID 2044); type: functional, cell-based;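 also: intracellular parasites grown in NIH/3T3 mouse fibroblasts as host cells; luminescent beta-galactosidase reporter signal from transgenic T. cruzi replicating inside host cells; inhibitors lower the luminescence signal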
[3] = cytotoxicity toward NIH3T3 fibroblasts, dose response, counter-screen, cell-based, ATP luminescence, mouse fibroblasts (AID 2010); type: functional;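 also: cells exposed to compound for about 90 hours before reading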

| EC50 [1] | SMILES | EC50 [2] | EC50 [3] |
| --- | --- | --- | --- |
| > 195 µM (not active) | Cn1c(-c2nonc2N)nc2ccccc21 |  |  |
| > 195 µM (not active) | CCc1ccccc1NC(=O)CSc1nnc(-c2ccncc2)o1 |  |  |
| > 195 µM (not active) | Cc1cc(=O)[nH]c2c1c(=O)[nH]n2C1CC(C)N(C)CC1C (stereo not drawn) |  |  |
| > 195 µM (not active) | CC(=O)C1=C(O)C(=O)N(c2ccc(C)cc2)C1c1ccccn1 (stereo not drawn) |  |  |
| 0.249 µM (active) | COC(=O)c1c[nH]nc1N=C(S)Nc1ccc(Cl)c(Cl)c1 |  |  |
| > 195 µM (not active) | COc1ccc(N2CC(C(=O)Nc3nnc(C4CCCCC4)s3)CC2=O)cc1 (stereo not drawn) |  |  |
| > 195 µM (not active) | CC(NC(=O)c1ccc2c(c1)OCO2)c1ccccc1 (stereo not drawn) |  |  |
|  | CCCCSc1nc2ccc(Nc3nc(N4CCOCC4)nc(N4CCOCC4)n3)cc2s1 | 1.45 µM (active) | > 60 µM (not active) |
|  | O=C(CCc1nc(O)c2ccccc2n1)N1CCN(C/C=C/c2ccccc2)CC1 | 0.276 µM (active) | > 30 µM (not active) |
| > 195 µM (not active) | CCN1CCN(C(=O)C2CCN(C(=O)c3cc4sccc4n3CC)CC2)CC1 |  |  |
| > 195 µM (not active) | CCCC(=O)Nc1ccc(Cl)c(NC(=O)c2cccnc2)c1 |  |  |
| > 195 µM (not active) | CCOC(=O)c1c(C)[nH]c(C(=O)COC(=O)C2=NNC(=O)CC2)c1C |  |  |
|  | CCOc1ccc2nc(O)c(CN(Cc3cccs3)Cc3nnnn3C(C)(C)CC)cc2c1 | 2.56 µM (active) | > 30 µM (not active) |
| > 195 µM (not active) | CCOc1ccc(CNCCCSc2ncccn2)cc1OC |  |  |
| > 195 µM (not active) | CCCS(=O)(=O)N1CCc2cc(OC)c(OC)cc2C1 |  |  |
|  | Cc1cc(N2CCN(C)CC2)nc2ccc(NC(=O)c3ccccc3F)cc12 | 1.02 µM (active) | > 60 µM (not active) |
|  | COc1ccc(-c2cc(C(=O)N3CCN(c4cccc(C)c4C)CC3)c3ccccc3n2)cc1OC | 2.93 µM (active) | > 60 µM (not active) |
|  | CC(C)CCNC(=O)CN=C(S)N(Cc1ccccc1)Cc1cccnc1 | 0.65 µM (active) | > 60 µM (not active) |
|  | FC(F)(F)c1cccc(-c2cc(C3CCNCC3)n[nH]2)c1 | 3.5 µM (active) | 8.6 µM (active) |
| 32.2 µM (active) | CCC(=O)N1C(C(=O)N2CCCC2)CSC1c1ccc(OC)cc1 (stereo not drawn) |  |  |
| > 195 µM (not active) | O=C(NCc1ccncc1)c1ccc(Cl)c(S(=O)(=O)N2CCOCC2)c1 |  |  |

| EC50 [1] | SMILES | EC50 [2] | EC50 [3] |
| --- | --- | --- | --- |
| > 195 µM (not active) | CCN(Cc1ccc2c(c1)OCO2)C(=O)/C=C/c1cccc(Br)c1 |  |  |
| > 195 µM (not active) | O=C(Nc1ccc(F)cc1)c1ccc(O)nn1 |  |  |
| > 195 µM (not active) | CSc1nsc(SCC(=O)NCc2ccc(C)cc2)n1 |  |  |
| 86.1 µM (active) | CCOC(=O)Cc1cc(O)c2cc(C)ccc2n1 |  |  |
|  | Clc1ccc(SCCOCCN2CCOCC2)cc1 | 0.803 µM (active) | > 60 µM (not active) |
|  | Cc1ccc(C(=O)NC(=S)Nc2ccc(Oc3ccc(Cl)cc3)cc2)cc1 | 2.09 µM (active) | > 60 µM (inconclusive) |
| > 195 µM (not active) | O=C(Nc1ccc(-n2ccnc2P(=O)(O)c2ccccc2)cc1)c1ccccc1Cl |  |  |
| > 195 µM (not active) | CCCC1=Nc2cc(C(=O)NCCCN3CCN(C)CC3)ccc2Sc2ccccc21 |  |  |
|  | Cc1ccc2sc(N(CCCN(C)C)C(=O)c3ccc(S(=O)(=O)N(C)Cc4ccccc4)cc3)nc2c1C | 0.451 µM (active) | 11.7 µM (active) |
|  | CCOc1cc(C)c(Cl)cc1S(=O)(=O)n1ccnc1 | 1.83 µM (active) | 21.4 µM (active) |
| > 195 µM (not active) | COc1cc(OC)cc(C(=O)N2CCN(S(C)(=O)=O)CC2)c1 |  |  |
| > 195 µM (not active) | Nc1nonc1-c1noc(-c2ccccc2Br)n1 |  |  |
|  | O=C(Nc1ccncc1)c1ccc(-c2ccccc2)cc1 | 1.44 µM (active) | > 60 µM (inconclusive) |
| > 195 µM (not active) | CCCCOc1ccc(C2C(=O)N(C3CCCCC3)CC(=O)N2CC2CCCO2)cc1 (stereo not drawn) |  |  |
| > 195 µM (not active) | CCCC1c2ccc(C)n2CCN1C(=O)Nc1ccc(F)cc1 (stereo not drawn) |  |  |
| > 195 µM (not active) | CCC(Sc1nc2cc(OC)c(OC)cc2c(=O)n1CCc1ccc(S(N)(=O)=O)cc1)C(=O)NCCOC (stereo not drawn) |  |  |
| > 195 µM (not active) | COc1ccccc1-n1ccnc(SCC(=O)NCc2ccccc2)c1=O |  |  |
|  | CCOC(=O)c1cc(-c2ccccc2)sc1NC(=O)CN1C(=O)NC(CC)(c2ccc(F)cc2)C1=O (stereo not drawn) | 2.21 µM (active) | > 60 µM (not active) |
| > 195 µM (not active) | Cc1nnc(N2C(=O)c3cccc4cccc(c34)C2=O)s1 |  |  |
| > 195 µM (not active) | COc1ccc(Nc2nc(C)cc(C)c2C#N)cc1OC |  |  |
|  | CCCCCCCC(=O)Nc1cc(C(=O)NCCC)ccc1N1CCC2(CC1)CC(c1ccccc1)=NO2 | 1.76 µM (active) | > 60 µM (not active) |

| EC50 [1] | SMILES | EC50 [2] | EC50 [3] |
| --- | --- | --- | --- |
| > 195 µM (not active) | CN(Cc1ccccc1)C(=O)CCS(=O)(=O)c1ccc2c(c1)n(C)c(=O)c(=O)n2C |  |  |
| > 195 µM (not active) | CC(=O)Nc1cccc(C(=O)/C=C/c2ccc(C)cc2)c1 |  |  |
|  | COc1ccc(Cc2nc3c4c(ncn3n2)Oc2ccc3ccccc3c2C4c2ccc(OC)c(OC)c2)cc1 (stereo not drawn) | 1.52 µM (active) | > 60 µM (inconclusive) |
|  | O=C(CCN1CCN(c2ccccc2)CC1)c1ccc(Br)cc1 | 1.85 µM (active) | > 60 µM (not active) |
| > 195 µM (not active) | CCn1c(=O)n(CC)c2cc(N3CCCC3)c(NC(=O)c3ccc(OC)c(Br)c3)cc21 |  |  |
| > 195 µM (not active) | Cc1ccc(C)c(N2CCN(CCN3CCCCC3)CC2)c1 |  |  |
| 60.1 µM (active) | COc1ccc(C(=O)C2CCCN(Cc3ccc(NC(C)=O)cc3)C2)cc1OC (stereo not drawn) |  |  |
|  | CC1CCCCN1C(=O)C(=O)c1cn(CC(=O)N2CCCCCC2)c2ccccc12 (stereo not drawn) | 1.49 µM (active) | > 60 µM (not active) |
| > 195 µM (not active) | CC1=C(C(=O)Nc2ccccc2)C(c2cc(CN3CCOCC3)cs2)C2=C(O)CCCC2=N1 (stereo not drawn) |  |  |
|  | Cc1cccc2cc(CN(Cc3ccc(F)cc3)Cc3nnnn3C3CCCC3)c(O)nc12 | 2.38 µM (active) | 28.9 µM (active) |
|  | COc1ccc(CCN=C(S)NCc2ccc(Cl)c(Cl)c2)cc1OC | 2.05 µM (active) | > 60 µM (inconclusive) |
| > 195 µM (not active) | CCCC(C)NC(=O)C1c2ccccc2Oc2ccccc21 (stereo not drawn) |  |  |
|  | O=[N+]([O-])c1ccc(S(=O)(=O)N2CCN(Cc3c[nH]c4ccccc34)CC2)cc1 | 1.31 µM (active) | > 60 µM (not active) |
| > 195 µM (not active) | Nc1ccc2oc(C3CCCCC3)nc2c1 |  |  |
| > 195 µM (not active) | CC(C)CCc1c(O)nc(SCC(=O)N2CCCCCC2)nc1O |  |  |
| > 195 µM (not active) | c1ccc(Cc2nc3ccccc3o2)cc1 |  |  |
| > 195 µM (not active) | O=[N+]([O-])c1ccc(/N=C/c2sc3ccccc3c2O)cc1 |  |  |
| > 195 µM (not active) | O=C(N/N=C/c1ccc(Br)o1)c1ccc2c(c1)OCCO2 |  |  |
|  | Cc1occc1C(=O)N/N=C/c1ccc(-c2cccc([N+](=O)[O-])c2)o1 | 2.05 µM (active) | > 60 µM (not active) |
| > 195 µM (not active) | Cn1c(C(C#N)C(=O)c2sc3ccccc3c2Cl)nc2ccccc21 (stereo not drawn) |  |  |
